Measured values taken from US4646832A, “Determining residual oil saturation by injecting salts of carbonic and halocarboxylic acids” (Shell Oil Company, priority 1985, dated 1987).
Like-named read-outs stand apart in the source and are kept apart here.

Tests used:
[1] = 50 psig, 0.05 mol/liter acid salt, 0.5 mol/liter NaCl
Excerpt: In each case, the solution was maintained at a pressure of 50 psig during each test. The pH of the solution was maintained substantially constant by adding portions of 0.1 mol/liter sodium bicarbonate solution to the system while the hydrolysis was proceeding. Each acid generator solution consisted of water containing 0.5 mol/liter sodium chloride and 0.05 mols/liter of the indicated halocarboxylic acid salt.
*^1 This is the time, in hours, required for the acid generator to be
onehalf reacted to form CO2 or acid.

[2] = Best estimate of applicable temperature range of CO2 generators (Table I); format: physicochemical; conditions: best estimate of the applicable temperature range as CO2 generator

O=C(O)CCl [Monochloroacetic acid]
Half Life, t1/2 ([1]; Test 8, 182 °F, pH 7.0): 127.9 h | Half Life, t1/2 ([1]; Test 9, 198 °F, pH 7.0): 49.4 h

O=C(O)CBr [Bromoacetic acid]
Half Life, t1/2 ([1]; Test 16, 167 °F, pH 5.5): 17.3 h | Half Life, t1/2 ([1]; Test 17, 166 °F, pH 7.0): 12.5 h | Half Life, t1/2 ([1]; Test 18, 143 °F, pH 7.0): 171.4 h | Half Life, t1/2 ([1]; Test 19, 156 °F, pH 6.2): 32.6 h | Half Life, t1/2 ([1]; Test 20, 140 °F, pH 6.2): 136.9 h | Half Life, t1/2 ([1]; Test 21, 124 °F, pH 6.2): 319.2 h

CC(Cl)CC(=O)O (stereo not drawn) [3-Chlorobutyric acid]
Half Life, t1/2 ([1]; Test 22, 125 °F, pH 6.2): 13.2 h | Half Life, t1/2 ([1]; Test 23, 99 °F, pH 6.2): 29.2 h | Half Life, t1/2 ([1]; Test 24, 102 °F, pH 6.2): 80.0 h

O=C(O)CCCl [3-Chloropropionic acid]
Half Life, t1/2 ([1]; Test 1, 138 °F, pH 8.0): 43.5 h | Half Life, t1/2 ([1]; Test 2, 140 °F, pH 7.0): 16.1 h | Half Life, t1/2 ([1]; Test 3, 133 °F, pH 6.2): 27.9 h | Half Life, t1/2 ([1]; Test 4, 133 °F, pH 5.5): 30.4 h | Half Life, t1/2 ([1]; Test 5, 113 °F, pH 5.5): 114.0 h | Half Life, t1/2 ([1]; Test 6, 117 °F, pH 6.2): 95.8 h | Half Life, t1/2 ([1]; Test 7, 114 °F, pH 7.0): 130.1 h

O=C(O)C(Cl)Cl [Dichloroacetic acid]
Half Life, t1/2 ([1]; Test 10, 197 °F, pH 7.0): 111.8 h | Half Life, t1/2 ([1]; Test 11, 221 °F, pH 7.0): 23.0 h

O=C(O)c1ccccc1Cl [O--Chlorobenzoic acid]
Half Life, t1/2 ([1]; Test 12, 212 °F, pH 7.0): 3,113 hours | Half Life, t1/2 ([1]; Test 13, 212 °F, pH 6.2): 2,543 hours | Half Life, t1/2 ([1]; Test 14, 204 °F, pH 8.0): 3,906 hours | Half Life, t1/2 ([1]; Test 15, 251 °F, pH 8.0): 2,335 hours | Temperature Range [2]: > 300 °F.

CC(Cl)C(=O)O (stereo not drawn) [2-Chloropropionic acid]
Half Life, t1/2 ([1]; Test 25, 130 °F, pH 6.2): 73.1 h | Half Life, t1/2 ([1]; Test 26, 114 °F, pH 6.2): 598.5 h
